Legend:
aldose reductase = target: T1, aldose reductase (Bos taurus, UniProt P16116); test: Inhibition of aldose reductase in vitro; type: biochemical; settings: enzyme from beef crystalline lenses; glyceraldehyde reduction, NADPH spectrophotometry
T1 construct: The enzyme was extracted from beef crystalline lenses; from tissue; host or cells: beef crystalline lenses
Description: The enzyme was extracted from beef crystalline lenses by the method described by S. Hayman and J. H. Kinoshita (J. Biol. Chem. 1965, 240, (2), 877). The percentage of inhibition of the capacity of the enzyme to reduce glyceraldehyde to glycerol under the effect of the product to be tested was determined by spectrophotometric determination of the amount of NADPH reacting according to the method described by Hayman and Kinoshita.

[1] = tested on: neuropathy induced by streptozotocin; test: Streptozotocin neuropathy in rats (sciatic nerve sorbitol and inositol, glycemia); type: in vivo; settings: for inositol level in sciatic nerves / sorbitol level in sciatic nerves: streptozotocin 100 mg/kg i.p.; for inositol level in sciatic nerves: 3rd day, controls 2.174±0.481; for sorbitol level in sciatic nerves: controls 0.819±0.215; for glycemia: streptozotocin, D 3, controls 4.72±0.60
Description: 4 batches of 10 rats weighing about 200 g were treated from D--2 to D+3 with a gummy julep of the product to be tested. At D 0 the animals received an i.p. injection of 100 mg/kg of streptozotocin dissolved in a citrate buffer. The glycemia was determined 24 hours and 3 days after injection of the diabetogenic agent. The rats were sacrificed on the 3rd day after streptozotocin injection and the sciatic nerves were removed to determine the sorbitol and inositol levels. Tested under these condition, COR 1988 caused a reduction of the sorbitol level that went from 0.819±0.215 mg/kg in the controls to 0.608±0.049 mg/kg in animals treated with 50 mg/kg and to 0.482±0.091 mg/kg in animals treated with 100 mg/kg. Also the inositol level went from 2.174±0.481 mg/kg in the controls to 1.593±0.109 mg/kg in the animals treated wtih 25 mg/kg, to 1.430+0.104 mg/kg in the animals treated with 50 mg/kg and to 1.402±0.130 mg/kg in animals treated with 100 mg/kg. The sorbitol and inositol levels after treatment were compared with the control levels by the U test of Mann and Whitney (D. Schwartz, Methodes statistique a 1' usage des medecins et biologists [Statistical method for use by physicians and biologistes], Ed. Flammarion, Paris 1963). The results obtained are significant with p<1%. Glycemia of the control animals was 4.72±0.60g/l on D 3. It went to 3.93±0.82 g/l in animals treated with […] of COR 1988 and to 3.61±0.73 g/l in animals treated with 100 mg/kg. The reduction of glycemia are significant.

mice = test: Toxicity in mice
Description: (§1) The toxicity of the products of this invention was determined in mice.

[2] = tested on: hypercholesterolemic mice; test: Hypolipidemic activity in hypercholesterolemic mice; type: in vivo; settings: 400 mg/kg orally, twice at 20 hour intervals
Description: The products, object of this invention, are useful as hypolipidemic agents. Thus, COR 1983 administered twice in a dose of 400 mg/kg orally at 20 hour intervals in hypercholesterolemic mice caused 24% reduction in cholesterolemia.

Toxicity in mice = settings: mouse, in vivo, ip, 200 mg/kg
Description: as §1

Which results are given for `CS(=O)(=O)Oc1c(-c2ccc(O)c(O)c2)oc2cc(O)cc(O)c2c1=O` [COR 1988, 3-methanesulfonyloxy-3',4',5,7-tetrahydroxyflavone]?
IC50 (aldose reductase): 0.251 µM; inositol level in sciatic nerves ([1]; treated with 25 mg/kg): 1.593 ± 0.109 mg/kg; sorbitol level in sciatic nerves ([1]; treated with 50 mg/kg D-2 to D+3, 3rd day): 0.608 ± 0.049 mg/kg; inositol level in sciatic nerves ([1]; treated with 50 mg/kg): 1.430 ± 0.104 mg/kg; sorbitol level in sciatic nerves ([1]; treated with 100 mg/kg D-2 to D+3, 3rd day): 0.482 ± 0.091 mg/kg; inositol level in sciatic nerves ([1]; treated with 100 mg/kg): 1.402 ± 0.130 mg/kg; glycemia ([1]; treated with 50 mg/kg): 3.93 ± 0.82 g/L; glycemia ([1]; treated with 100 mg/kg): 3.61 ± 0.73 g/L; mortality (mice; mice, orally, in water with 6% gum, up to a dose of 3 g/kg): did not cause any mortality

Which IC50 (aldose reductase) does the source give for `O=c1c(OC2CCCCC2)c(-c2ccc(O)c(O)c2)oc2cc(O)cc(O)c12` [COR 1983, 3-cyclohexyloxy-5,7-3',4'-tetrahydroxyflavone] here?
The IC50 was 1.58 µM.

What about the reduction in cholesterolemia [2] of the same molecule?
Its reduction in cholesterolemia is 24%.

And the mortality (Toxicity in mice)?
The mortality was 10%.

What about the mortality (mice; mice, orally, in water with 6% gum, dose of 1 g/kg) of the same molecule?
The mortality was “no mortality”.

What about the mortality (mice; mouse, in vivo) of the same molecule?
Its mortality is “did not cause any mortality”.

Which IC50 (aldose reductase) does the source give for `CCOc1c(-c2ccc(O)c(O)c2)oc2cc(O)ccc2c1=O` [COR 1987, 3-Ethoxy-7,3',4'trihydroxyflavone] here?
The IC50 was 0.501 µM.

Which IC50 (aldose reductase) does the source give for `Cc1ccc(S(=O)(=O)Oc2c(-c3ccc(O)c(O)c3)oc3cc(O)cc(O)c3c2=O)cc1` [COR 1990, 3-Paratoluenesulfonyloxy-5,7,3',4'-tetrahydroxyflavone] here?
The IC50 was 3.16 µM.
